# Experimental data from ChEMBL document CHEMBL4130392, “Eugenol derived immunomodulatory molecules against visceral leishmaniasis” (Eur J Med Chem, 2017).
# Legend:
# RAW264.7 = test: Cytotoxicity against mouse RAW264.7 cells after 48 hrs by MTT assay; assay type: cell-based; conditions: RAW264.7, 48 h
# [1] = Therapeutic index, ratio of IC50 for mouse RAW264.7 cells to IC50 for Leishmania donovani MHOM/IN/AG/83 promastigotes; assay type: toxicity; conditions: read-out: Ratio IC50
# Peritoneal macrophage [2] = test: Induction of NO generation in Leishmania donovani MHOM/IN/AG/83 infected BALB/c mouse peritoneal macrophages assessed as nitrite levels after 48 hrs by Griess assay relative to untreated control; assay type: functional; note: test concentration or dose not given here
# Peritoneal macrophage [3] = test: Cytotoxicity against BALB/c mouse peritoneal macrophages after 48 hrs by MTT assay; assay type: cell-based
# Leishmania donovani [4] = test: Antileishmanial activity against Leishmania donovani MHOM/IN/AG/83 promastigotes after 48 hrs by MTT assay; assay type: functional, organism-based; conditions: MHOM/IN/AG/83, 48 h
# [5] = Therapeutic index, ratio of EC50 for BALB/c mouse peritoneal macrophages to EC50 for Leishmania donovani MHOM/IN/AG/83 amastigotes; assay type: toxicity; conditions: read-out: Ratio EC50
# Leishmania donovani [6] = test: Antileishmanial activity against Leishmania donovani MHOM/IN/AG/83 amastigotes infected in BALB/c mouse peritoneal macrophages after 42 hrs by Giemsa staining-based microscopic analysis; assay type: functional, organism-based; conditions: MHOM/IN/AG/83, 42 h
Compound,IC50 (RAW264.7),selectivity ratio [1],Activity (Peritoneal macrophage [2]),Activity (Peritoneal macrophage [2]; record 2),EC50 (Peritoneal macrophage [3]),IC50 (Leishmania donovani [4]),selectivity ratio [5],EC50 (Leishmania donovani [6])
C=CCc1ccc(OCC=C(C)C)c(OC)c1,359 µM,1.48,Dose-dependent effect,8.37 µM,372 µM,242 µM,2.38,157 µM
C=CCc1ccc(OC(=O)CCCCCCCCCCCCCCC)c(OC)c1,374 µM,8.56,Dose-dependent effect,39.42 µM,357 µM,43.3 µM,42.2,8.54 µM
C=CCOc1ccc(CC=C)cc1OC [ALLYLEUGENOL],385 µM,1.64,Dose-dependent effect,13.86 µM,353 µM,238 µM,2.95,120 µM
C=CCc1ccc(OC(=O)c2cccc([N+](=O)[O-])c2)c(OC)c1,255 µM,3.33,Dose-dependent effect,24.58 µM,218 µM,76.9 µM,8.36,26.2 µM
C=CCc1ccc(OCC)c(OC)c1 [ETHYLEUGENOL],102 µM,1.43,Dose-dependent effect,10.43 µM,90.5 µM,71.7 µM,0.55,162 µM
C=CCc1ccc(OC(=O)CCCCCCCCC)c(OC)c1,373 µM,5.66,Dose-dependent effect,27.31 µM,404 µM,67.5 µM,12.4,33.1 µM
C=CCc1ccc(OCCCCCC)c(OC)c1,292 µM,3.63,Dose-dependent effect,20.81 µM,272 µM,80.3 µM,7.6,36.4 µM
C=CCc1ccc(OC(=O)c2ccccc2Cl)c(OC)c1,251 µM,3.91,Dose-dependent effect,14.58 µM,275 µM,64.5 µM,4.79,57.9 µM
C=CCc1ccc(OCCCCCCCCCC)c(OC)c1,412 µM,8.61,Dose-dependent effect,26.17 µM,272 µM,49.9 µM,9.67,29 µM
C=CCc1ccc(OC(=O)CCCC)c(OC)c1,368 µM,3.49,Dose-dependent effect,24.39 µM,353 µM,106 µM,5.41,65.6 µM
C=CCc1ccc(OCCCCCCCCC)c(OC)c1,332 µM,4.27,Dose-dependent effect,25.19 µM,326 µM,81.9 µM,6.47,51.8 µM
C=CCc1ccc(OC(=O)C2CCNCC2)c(OC)c1,261 µM,2.96,Dose-dependent effect,21.55 µM,307 µM,89 µM,4.66,66.3 µM
C=CCc1ccc(OC(=O)c2ccc(F)cc2)c(OC)c1,364 µM,5.93,Dose-dependent effect,14.56 µM,400 µM,61.3 µM,5.24,78.4 µM
C=CCc1ccc(OC)c(OC)c1 [METHYLEUGENOL],517 µM,1.09,Dose-dependent effect,10.82 µM,485 µM,475 µM,2.39,203 µM
C=CCc1ccc(OC(=O)CCC)c(OC)c1,233 µM,3.61,Dose-dependent effect,23.08 µM,191 µM,64.5 µM,2.71,72.1 µM
C=CCc1ccc(OCCCCC)c(OC)c1,178 µM,1.96,Dose-dependent effect,12.95 µM,164 µM,90.8 µM,1.97,83.4 µM

Compound,IC50 (RAW264.7),selectivity ratio [1],Activity (Peritoneal macrophage [2]),Activity (Peritoneal macrophage [2]; record 2),EC50 (Peritoneal macrophage [3]),IC50 (Leishmania donovani [4]),selectivity ratio [5],EC50 (Leishmania donovani [6])
C=CCc1ccc(OC(=O)CCCCCCCCCCC)c(OC)c1,529 µM,9.36,Dose-dependent effect,34.28 µM,498 µM,56.2 µM,25.9,19.6 µM
C=CCc1ccc(OCCCCCCCCCCCCCCCC)c(OC)c1,292 µM,5.02,Dose-dependent effect,29.1 µM,251 µM,58.1 µM,14.5,17.1 µM
C=CCc1ccc(OC(=O)c2ccc([N+](=O)[O-])cc2)c(OC)c1,261 µM,3.18,Dose-dependent effect,27.28 µM,244 µM,82.4 µM,9.21,26.7 µM
C=CCc1ccc(OCCCCCCCC)c(OC)c1,357 µM,5.85,Dose-dependent effect,26.01 µM,393 µM,62.3 µM,8.3,48.7 µM
C=CCc1ccc(OC(=O)Cc2ccccc2)c(OC)c1,391 µM,11.8,Dose-dependent effect,36.45 µM,385 µM,33.4 µM,41.8,9.28 µM
C=CCc1ccc(OCCCCCCCCCCCC)c(OC)c1,299 µM,5.76,Dose-dependent effect,28.12 µM,292 µM,52.5 µM,11.4,26 µM
C=CCc1ccc(OC(=O)[C@@H](N)Cc2c[nH]c3ccccc23)c(OC)c1,451 µM,8.6,Dose-dependent effect,28.78 µM,471 µM,53 µM,22.1,21.6 µM
C=CCc1ccc(OC(=O)CC)c(OC)c1,448 µM,3.1,Dose-dependent effect,12.19 µM,429 µM,146 µM,3.86,112 µM
C=CCc1ccc(OCCCC)c(OC)c1 [N-BUTYLEUGENOL],329 µM,1.07,Dose-dependent effect,14.23 µM,345 µM,309 µM,2.35,147 µM
C=CCc1ccc(OC(=O)CCCCCCCC)c(OC)c1,317 µM,3.37,Dose-dependent effect,27.14 µM,343 µM,93.6 µM,6.52,52.9 µM
C=CCc1ccc(OCCCCCCC)c(OC)c1,198 µM,3.28,Dose-dependent effect,22.43 µM,197 µM,61.3 µM,4.88,41.1 µM
C=CCc1ccc(OC(=O)CCCCCCC)c(OC)c1,580 µM,8.95,Dose-dependent effect,24.23 µM,565 µM,68.3 µM,11,53.3 µM
C=CCc1ccc(OC(=O)[C@@H]2CCCN2)c(OC)c1,278 µM,2.87,Dose-dependent effect,21.87 µM,326 µM,97.4 µM,4.49,72.9 µM
C[C@@H]1[C@H](O)[C@@H](C)/C=C/C=C/C=C/C=C/C=C/C=C/C=C/[C@H](O[C@@H]2O[C@H](C)[C@@H](O)[C@H](N)[C@@H]2O)C[C@@H]2O[C@](O)(C[C@@H](O)C[C@@H](O)[C@H](O)CC[C@@H](O)C[C@@H](O)CC(=O)O[C@H]1C)C[C@H](O)[C@H]2C(=O)O [AMPHOTERICIN B],10 µM,7.4,Dose-dependent effect,,9.18 µM,1.36 µM,7.78,1.18 µM
C=CCc1ccc(OC(=O)c2c[nH]c3ccccc23)c(OC)c1,485 µM,8.11,Dose-dependent effect,26.24 µM,496 µM,60.5 µM,19.7,25.3 µM
C=CCc1ccc(OC(C)=O)c(OC)c1 [EUGENYL ACETATE],356 µM,2.15,Dose-dependent effect,12.44 µM,352 µM,166 µM,3.59,99.1 µM
